Data as given in US9499550B2 (BRISTOL-MYERS SQUIBB COMPANY, priority 2012, dated 2016).
Where two headings read alike, the source gives them in different places.

Columns and labels:
[1] = system: HCV genotype 1a (H77 strain) replicon in HUH-7 cells; assay: HCV replicon luciferase reporter assay, genotype 1a; format: cell-based; conditions: Hepatitis C virus, Huh-7, 72 h, HCV genotype 1a replicon luciferase, 3 days incubation
How it was run: (§1)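 Replicon inhibition for both genotypes was measured as Renilla luciferase signal (EnduRen, 7.5 μM final, 2 h) after 3-day, 37° C exposure of replicon-bearing HUH-7 cells in 4% FCS DMEM, 0.5% DMSO. The 1b construct carries S1179I; the 1a H77 construct carries P1496L and S2204I. Twenty-point, 3-fold dilutions were fitted four-parametrically for EC50, and CC50 was taken from multiplexed Cell Titer-Blue.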

[2] = system: HCV genotype 1b (Con1) replicon in HUH-7 cells; assay: HCV replicon luciferase reporter assay, genotype 1b; format: cell-based; conditions: Hepatitis C virus, Huh-7, 72 h, HCV genotype 1b replicon luciferase, 3 days incubation
How it was run: as §1

SMILES | EC50 ([1]; read-out: LE_1a (EC50, range)) [nM] | EC50 ([2]; read-out: LE_1b (EC50, range)) [nM] | EC50 ([1]; read-out: LE_1a (EC50)) [nM] | EC50 ([2]; read-out: LE_1b (EC50)) [nM]
CC[C@@H]1C[C@H](C)CC/C=C\[C@@H]2C[C@@]2(C(=O)NS(=O)(=O)C2(CF)CC2)NC(=O)[C@@H]2C[C@@H](Oc3nc4c(c5ccccc35)CCCO4)CN2C(=O)[C@H]1NC(=O)OC(C)(C)C(F)F [Compound 6072, 1,1-difluoro-2-methylpropan-2-yl((2R,6S,7R,9R,13aS,14aR,16aS,Z)-2-((2,3-dihydro-1H-pyrano[2,3-c]isoquinolin-6-yl)oxy)-7-ethyl-14a-(((1-(fluoromethyl)cyclopropyl)sulfonyl)carbamoyl)-9-methyl-5,16-dioxo-1,2,3,5,6,7,8,9,10,11,13a,14,14a,15,16,16a-hexadecahydrocyclopropa[e]pyrrolo[1,2-a][1,4]diazacyclopentadecin-6-yl)carbamate] | 1.01 to 5 | 0.51 to 1 |  | 
C[C@@H]1CC/C=C\[C@@H]2C[C@@]2(C(=O)NS(=O)(=O)C2(CF)CC2)NC(=O)[C@@H]2C[C@@H](Oc3nc4c(c5ccccc35)CCCO4)CN2C(=O)[C@@H](NC(=O)OC(C)(C)C(F)F)[C@H](C)C1 [Compound 6074, 1,1-difluoro-2-methylpropan-2-yl((2R,6S,7R,9R,13aS,14aR,16aS,Z)-2-((2,3-dihydro-1H-pyrano[2,3-c]isoquinolin-6-yl)oxy)-14a-(((1-(fluoromethyl)cyclopropyl)sulfonyl)carbamoyl)-7,9-dimethyl-5,16-dioxo-1,2,3,5,6,7,8,9,10,11,13a,14,14a,15,16,16a-hexadecahydrocyclopropa[e]pyrrolo[1,2-a][1,4]diazacyclopentadecin-6-yl)carbamate] | 0.51 to 1 | 1.01 to 5 |  | 
COc1ccc2c(O[C@@H]3C[C@H]4C(=O)N[C@]5(C(=O)NS(=O)(=O)C6(CF)CC6)C[C@H]5/C=C\CC[C@@H](C)C[C@@H](C)[C@H](NC(=O)OC(C)(C)C(F)(F)F)C(=O)N4C3)nc3c(c2c1)CCCO3 [Compound 6076, 1,1,1-trifluoro-2-methylpropan-2-yl((2R,6S,7R,9R,13aS,14aR,16aS,Z)-14a-(((1-(fluoromethyl)cyclopropyl)sulfonyl)carbamoyl)-2-((9-methoxy-2,3-dihydro-1H-pyrano[2,3-c]isoquinolin-6-yl)oxy)-7,9-dimethyl-5,16-dioxo-1,2,3,5,6,7,8,9,10,11,13a,14,14a,15,16,16a-hexadecahydrocyclopropa[e]pyrrolo[1,2-a][1,4]diazacyclopentadecin-6-yl)carbamate] | 1.01 to 5 | 1.01 to 5 |  | 
COc1ccc2c(O[C@@H]3C[C@H]4C(=O)N[C@]5(C(=O)NS(=O)(=O)C6(CF)CC6)C[C@H]5/C=C\CC[C@@H](C)C[C@@H](C)[C@H](NC(=O)OC(C)(C)C(F)F)C(=O)N4C3)nc3c(c2c1)CCCO3 [Compound 6078, 1,1-difluoro-2-methylpropan-2-yl((2R,6S,7R,9R,13aS,14aR,16aS,Z)-14a-(((1-(fluoromethyl)cyclopropyl)sulfonyl)carbamoyl)-2-((9-methoxy-2,3-dihydro-1H-pyrano[2,3-c]isoquinolin-6-yl)oxy)-7,9-dimethyl-5,16-dioxo-1,2,3,5,6,7,8,9,10,11,13a,14,14a,15,16,16a-hexadecahydrocyclopropa[e]pyrrolo[1,2-a][1,4]diazacyclopentadecin-6-yl)carbamate] | 1.01 to 5 | 1.01 to 5 |  | 
COc1ccc2c(O[C@@H]3C[C@H]4C(=O)N[C@]5(C(=O)NS(=O)(=O)C6(C)CC6)C[C@H]5/C=C\CC[C@@H](C)C[C@@H](C)[C@H](NC(=O)OC(C)(C)C(F)(F)F)C(=O)N4C3)nc3c(c2c1)CCCO3 [Compound 6080, 1,1,1-trifluoro-2-methylpropan-2-yl((2R,6S,7R,9R,13aS,14aR,16aS,Z)-2-((9-methoxy-2,3-dihydro-1H-pyrano[2,3-c]isoquinolin-6-yl)oxy)-7,9-dimethyl-14a-(((1-methylcyclopropyl)sulfonyl)carbamoyl)-5,16-dioxo-1,2,3,5,6,7,8,9,10,11,13a,14,14a,15,16,16a-hexadecahydrocyclopropa[e]pyrrolo[1,2-a][1,4]diazacyclopentadecin-6-yl)carbamate] | 0.1 to 0.5 | 0.51 to 1 | 0.31 | 0.79
COc1ccc2c(O[C@@H]3C[C@H]4C(=O)N[C@]5(C(=O)NS(=O)(=O)C6(C)CC6)C[C@H]5/C=C\CC[C@@H](C)C[C@@H](C)[C@H](NC(=O)OC(C)(C)C(C)(F)F)C(=O)N4C3)nc3c(c2c1)CCCO3 [Compound 6082, 3,3-difluoro-2-methylbutan-2-yl((2R,6S,7R,9R,13aS,14aR,16aS,Z)-2-((9-methoxy-2,3-dihydro-1H-pyrano[2,3-c]isoquinolin-6-yl)oxy)-7,9-dimethyl-14a-(((1-methylcyclopropyl)sulfonyl)carbamoyl)-5,16-dioxo-1,2,3,5,6,7,8,9,10,11,13a,14,14a,15,16,16a-hexadecahydrocyclopropa[e]pyrrolo[1,2-a][1,4]diazacyclopentadecin-6-yl)carbamate] | 0.51 to 1 | 1.01 to 5 |  | 
COc1ccc2c(O[C@@H]3C[C@H]4C(=O)N[C@]5(C(=O)NS(=O)(=O)C6(C)CC6)C[C@H]5/C=C\CC[C@@H](C)C[C@@H](C)[C@H](NC(=O)OC(C)(C)C(F)F)C(=O)N4C3)nc3c(c2c1)CCCO3 [Compound 6084, 1,1-difluoro-2-methylpropan-2-yl((2R,6S,7R,9R,13aS,14aR,16aS,Z)-2-((9-methoxy-2,3-dihydro-1H-pyrano[2,3-c]isoquinolin-6-yl)oxy)-7,9-dimethyl-14a-(((1-methylcyclopropyl)sulfonyl)carbamoyl)-5,16-dioxo-1,2,3,5,6,7,8,9,10,11,13a,14,14a,15,16,16a-hexadecahydrocyclopropa[e]pyrrolo[1,2-a][1,4]diazacyclopentadecin-6-yl)carbamate] | 0.1 to 0.5 | 0.51 to 1 |  | 
CC[C@@H]1C[C@H](C)CC/C=C\[C@@H]2C[C@@]2(C(=O)NS(=O)(=O)C2(CF)CC2)NC(=O)[C@@H]2C[C@@H](Oc3nc4c(c5cc(OC)ccc35)CCCO4)CN2C(=O)[C@H]1NC(=O)OC(C)(C)C(F)(F)F [Compound 6086, 1,1,1-trifluoro-2-methylpropan-2-yl((2R,6S,7R,9R,13aS,14aR,16aS,Z)-7-ethyl-14a-(((1-(fluoromethyl)cyclopropyl)sulfonyl)carbamoyl)-2-((9-methoxy-2,3-dihydro-1H-pyrano[2,3-c]isoquinolin-6-yl)oxy)-9-methyl-5,16-dioxo-1,2,3,5,6,7,8,9,10,11,13a,14,14a,15,16,16a-hexadecahydrocyclopropa[e]pyrrolo[1,2-a][1,4]diazacyclopentadecin-6-yl)carbamate] | 5.01 to 35 | 5.01 to 35 |  | 
CC[C@@H]1C[C@H](C)CC/C=C\[C@@H]2C[C@@]2(C(=O)NS(=O)(=O)C2(CF)CC2)NC(=O)[C@@H]2C[C@@H](Oc3nc4c(c5cc(OC)ccc35)CCCO4)CN2C(=O)[C@H]1NC(=O)OC(C)(C)C(C)(F)F [Compound 6088, 3,3-difluoro-2-methylbutan-2-yl((2R,6S,7R,9R,13aS,14aR,16aS,Z)-7-ethyl-14a-(((1-(fluoromethyl)cyclopropyl)sulfonyl)carbamoyl)-2-((9-methoxy-2,3-dihydro-1H-pyrano[2,3-c]isoquinolin-6-yl)oxy)-9-methyl-5,16-dioxo-1,2,3,5,6,7,8,9,10,11,13a,14,14a,15,16,16a-hexadecahydrocyclopropa[e]pyrrolo[1,2-a][1,4]diazacyclopentadecin-6-yl)carbamate] | 5.01 to 35 | 5.01 to 35 |  | 
CC[C@@H]1C[C@H](C)CC/C=C\[C@@H]2C[C@@]2(C(=O)NS(=O)(=O)C2(C)CC2)NC(=O)[C@@H]2C[C@@H](Oc3nc4c(c5cc(OC)ccc35)CCCO4)CN2C(=O)[C@H]1NC(=O)OC(C)(C)C(C)(F)F [Compound 6090, 3,3-difluoro-2-methylbutan-2-yl((2R,6S,7R,9R,13aS,14aR,16aS,Z)-7-ethyl-2-((9-methoxy-2,3-dihydro-1H-pyrano[2,3-c]isoquinolin-6-yl)oxy)-9-methyl-14a-(((1-methylcyclopropyl)sulfonyl)carbamoyl)-5,16-dioxo-1,2,3,5,6,7,8,9,10,11,13a,14,14a,15,16,16a-hexadecahydrocyclopropa[e]pyrrolo[1,2-a][1,4]diazacyclopentadecin-6-yl)carbamate] | 0.51 to 1 | 0.51 to 1 |  | 
CC[C@@H]1C[C@H](C)CC/C=C\[C@@H]2C[C@@]2(C(=O)NS(=O)(=O)C2(C)CC2)NC(=O)[C@@H]2C[C@@H](Oc3nc4c(c5cc(OC)ccc35)CCCO4)CN2C(=O)[C@H]1NC(=O)OC(C)(C)C(F)F [Compound 6092, 1,1-difluoro-2-methylpropan-2-yl((2R,6S,7R,9R,13aS,14aR,16aS,Z)-7-ethyl-2-((9-methoxy-2,3-dihydro-1H-pyrano[2,3-c]isoquinolin-6-yl)oxy)-9-methyl-14a-(((1-methylcyclopropyl)sulfonyl)carbamoyl)-5,16-dioxo-1,2,3,5,6,7,8,9,10,11,13a,14,14a,15,16,16a-hexadecahydrocyclopropa[e]pyrrolo[1,2-a][1,4]diazacyclopentadecin-6-yl)carbamate] | 1.01 to 5 | 1.01 to 5 |  | 
CC[C@@H]1C[C@H](C)CC/C=C\[C@@H]2C[C@@]2(C(=O)NS(=O)(=O)C2(C)CC2)NC(=O)[C@@H]2C[C@@H](Oc3nc4c(c5cc(OC)ccc35)CCCO4)CN2C(=O)[C@H]1NC(=O)OC(C)(C)C(F)(F)F [Compound 6095, 1,1,1-trifluoro-2-methylpropan-2-yl((2R,6S,7R,9R,13aS,14aR,16aS,Z)-7-ethyl-2-((9-methoxy-2,3-dihydro-1H-pyrano[2,3-c]isoquinolin-6-yl)oxy)-9-methyl-14a-(((1-methylcyclopropyl)sulfonyl)carbamoyl)-5,16-dioxo-1,2,3,5,6,7,8,9,10,11,13a,14,14a,15,16,16a-hexadecahydrocyclopropa[e]pyrrolo[1,2-a][1,4]diazacyclopentadecin-6-yl)carbamate] | 0.51 to 1 | 0.1 to 0.5 |  | 
